Measured values published in patent publication US12234232B2, “Aromatic heterocyclic compound with kinase inhibitory activity” (SHANGHAI ENNOVABIO PHARMACEUTICALS CO., LTD., priority 2018, dated 2025).
pIC50: −log10 of the molar value.

What was measured:
Mouse pharmacokinetics = format: in vivo; details: CD-1 mice, 5 mg/kg, P.O.
Description: Test compound was intravenously (IV) or orally (PO) administrated to CD-1 mice. Blood samples were collected at different time points as indicated below. The concentration of the compounds in the mouse plasma was determined by LC-MS/MS and related parameters were calculated. The details are as follows: the required amount of the test product was taken to prepare a solution of the required concentration for intravenous injection or oral administration. The age of the animals was about 6-8 weeks at the beginning of the dosing experiment. Blood sampling time points are 0.083 h, 0.25 h, 0.5 h, 1 h, 2 h, 4 h, 8 h and 24 h after compound administration. The Phoenix WinNonlin 7.0 software was used to calculate the pharmacokinetic parameters through the blood drug concentration data at different time points.

JAK2 [1] = target: T1, JAK2 (Homo sapiens, UniProt O60674); experiment: Human whole blood JAK2 activity assay: GM-CSF-induced STAT5 phosphorylation (CD33+ cells); format: cell-based; parameters: endogenous in cells; details: GM-CSF (20 ng/mL), read-out: IC50_JAK2 (GM-CSF/pSTAT5)
T1 sequence (O60674 whole entry): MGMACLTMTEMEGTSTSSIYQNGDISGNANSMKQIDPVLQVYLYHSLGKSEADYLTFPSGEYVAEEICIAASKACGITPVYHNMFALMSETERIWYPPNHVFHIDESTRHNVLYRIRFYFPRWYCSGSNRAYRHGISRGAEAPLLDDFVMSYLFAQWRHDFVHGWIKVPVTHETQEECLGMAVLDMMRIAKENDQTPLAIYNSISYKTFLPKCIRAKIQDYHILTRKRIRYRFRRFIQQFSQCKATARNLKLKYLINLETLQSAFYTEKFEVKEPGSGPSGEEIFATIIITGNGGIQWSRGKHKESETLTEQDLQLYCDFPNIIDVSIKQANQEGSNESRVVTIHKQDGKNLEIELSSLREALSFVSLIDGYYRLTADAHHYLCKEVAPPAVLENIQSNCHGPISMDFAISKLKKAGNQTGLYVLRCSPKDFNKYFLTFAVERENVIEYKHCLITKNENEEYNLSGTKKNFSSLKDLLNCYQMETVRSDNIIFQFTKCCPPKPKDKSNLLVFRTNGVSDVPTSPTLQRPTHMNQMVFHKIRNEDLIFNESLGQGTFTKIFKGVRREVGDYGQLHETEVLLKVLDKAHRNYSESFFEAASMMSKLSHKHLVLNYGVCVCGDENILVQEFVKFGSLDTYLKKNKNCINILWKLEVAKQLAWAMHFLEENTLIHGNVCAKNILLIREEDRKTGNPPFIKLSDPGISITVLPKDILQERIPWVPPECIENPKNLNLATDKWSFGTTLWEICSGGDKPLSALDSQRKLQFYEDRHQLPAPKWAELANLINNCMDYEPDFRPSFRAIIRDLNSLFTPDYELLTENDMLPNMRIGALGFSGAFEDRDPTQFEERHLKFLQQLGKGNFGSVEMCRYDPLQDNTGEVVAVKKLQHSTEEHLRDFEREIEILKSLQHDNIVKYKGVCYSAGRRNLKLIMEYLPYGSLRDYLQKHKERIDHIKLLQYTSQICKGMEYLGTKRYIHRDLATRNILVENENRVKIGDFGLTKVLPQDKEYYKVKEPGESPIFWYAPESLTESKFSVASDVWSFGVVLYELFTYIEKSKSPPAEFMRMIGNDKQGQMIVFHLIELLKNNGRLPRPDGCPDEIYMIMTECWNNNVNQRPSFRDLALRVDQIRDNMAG
Description: Compound inhibition of JAK1 and JAK2 activities was measured in human whole blood: inhibition of IL-6-induced STAT1 phosphorylation (CD4+ T cells) and GM-CSF-induced STAT5 phosphorylation (CD33+ cells) in human whole blood were respectively analysized. The experimental procedures are shown as follows:
1) Human whole blood was collected into heparinized tubes, and seeded in a 96-well plate at 100 µL/well, and incubated in a cell incubator for 15 minutes.
2) Different concentrations of compounds (25 μL/well) were added into desired wells and incubated at 37° C. under 5% CO2 for 30 minutes. The final concentration of DMSO was 0.2%.
3) Blood cells were stimulated with recombinant human IL-6 (100 ng/mL) or recombinant human GM-CSF (20 ng/mL) or PBS at 37° C. and 5% CO2 for 20 minutes.
4) The blood was treated with pre-warmed 1× Lysis/Fixing Buffer (BD Phosflow) at 37° C. for 10 minutes to lyse erythrocytes and fix leukocytes.
5) After the cells were permeabilized with pre-cooled buffer (Perm buffer III) on ice for 60 minutes, anti-pSTAT1 and anti-CD4 antibodies (IL-6 stimulated samples) or anti-pSTAT5 and anti-CD33 antibodies (GM-CSF stimulated samples) were used to stain the samples at 4° C. for 60 minutes.
7) The cells were washed twice and resuspended in buffer for FACS analysis (Thermo Attune NxT).

JAK2 [2] = target: T1, JAK2; experiment: In vitro JAK2 kinase activity assay (HTRF kinEASE TK); format: biochemical; parameters: purchased Carna Biosciences; details: 2.7 μM ATP, 25 minutes, room temperature; read-out: IC50 JAK2 (enzyme activity assay)
Outline: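 HTRF kinase reaction with 0.001 ng/μl recombinant human JAK2, 1 μM biotinylated TK substrate peptide, 2.7 μM ATP, 5 mM MgCl2, 1 mM DTT, 25 min at room temperature; compounds 10 μM–0.04 nM, 4-fold steps, duplicate, 1% DMSO. Detection overnight; 665/620 ratio converted to % inhibition, IC50 by 4-parameter fit.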

JAK1 = JAK1 (Homo sapiens, UniProt P23458); experiment: Cellular JAK1 activity assay: IL-6-stimulated STAT3 phosphorylation in TF-1 cells; format: cell-based; parameters: endogenous in cells; host or cells: TF-1 cells (ATCC); details: IL-6 (30 ng/mL), pSTAT3, read-out: IC50 Cell JAK1
Chain of JAK1 (P23458 whole entry): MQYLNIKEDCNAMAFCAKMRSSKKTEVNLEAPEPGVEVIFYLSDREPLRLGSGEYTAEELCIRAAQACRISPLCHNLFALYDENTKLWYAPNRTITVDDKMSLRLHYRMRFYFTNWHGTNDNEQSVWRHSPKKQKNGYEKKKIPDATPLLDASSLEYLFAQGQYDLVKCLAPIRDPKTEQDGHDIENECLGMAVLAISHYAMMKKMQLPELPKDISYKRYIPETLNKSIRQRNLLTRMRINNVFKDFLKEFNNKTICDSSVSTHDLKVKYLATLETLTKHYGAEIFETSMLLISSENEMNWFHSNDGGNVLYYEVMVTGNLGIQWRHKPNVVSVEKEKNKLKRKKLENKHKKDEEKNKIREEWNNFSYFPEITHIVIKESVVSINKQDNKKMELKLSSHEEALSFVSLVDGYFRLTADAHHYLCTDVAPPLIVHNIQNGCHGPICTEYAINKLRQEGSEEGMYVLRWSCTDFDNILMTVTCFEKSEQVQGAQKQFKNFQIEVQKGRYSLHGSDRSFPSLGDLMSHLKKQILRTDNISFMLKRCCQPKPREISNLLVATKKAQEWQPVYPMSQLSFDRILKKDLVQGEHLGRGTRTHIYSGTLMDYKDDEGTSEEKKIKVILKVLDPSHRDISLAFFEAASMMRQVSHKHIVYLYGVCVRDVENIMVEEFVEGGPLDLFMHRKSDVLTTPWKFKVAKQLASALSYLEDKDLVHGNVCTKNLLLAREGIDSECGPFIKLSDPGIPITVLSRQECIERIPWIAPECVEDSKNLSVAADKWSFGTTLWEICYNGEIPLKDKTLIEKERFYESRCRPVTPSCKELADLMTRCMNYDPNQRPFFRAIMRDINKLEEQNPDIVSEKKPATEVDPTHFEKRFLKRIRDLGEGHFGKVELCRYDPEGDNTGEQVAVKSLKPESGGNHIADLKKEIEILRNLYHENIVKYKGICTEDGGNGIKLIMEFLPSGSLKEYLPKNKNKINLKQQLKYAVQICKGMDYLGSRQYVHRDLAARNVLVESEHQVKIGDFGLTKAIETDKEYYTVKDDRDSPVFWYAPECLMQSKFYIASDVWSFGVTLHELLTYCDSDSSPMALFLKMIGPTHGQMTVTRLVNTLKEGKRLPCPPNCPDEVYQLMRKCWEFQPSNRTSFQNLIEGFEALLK
Description: (§1) In TF-1 cells, IL-6 stimulation leads to phosphorylation of STAT3 through JAK1, while EPO stimulants phosphorylation of STAT5 via JAK2.
(§2) TF-1 cells were obtained from American Type Culture Collection (ATCC). TF-1 cells were starved overnight (cell density was 100,000 cells/well at plating) in OptiMEM medium without phenol red containing 0.5% fetal bovine serum (FBS), 0.1 mM non-essential amino acids (NEAA), 1 mM sodium pyruvate at 37° C. The compound was serially diluted in DMSO, added to TF-1 cells and incubated at 37° C. for 20 minutes. The final concentration of DMSO was 0.2%. Then, human recombinant cytokine IL-6 (30 ng/mL) or EPO (10 U/mL) was added to the wells containing TF-1 cells. After the cell plate was incubated for 30 minutes, cells were lysed, and the phosphorylation of STAT3 (IL-6) or STAT5 (EPO) in the cell lysate (pSTAT3/total STAT3 Elisa Kit: CST #7300C/CST #7305C; pSTAT5 and total STAT5 Elisa Kit: Abcam #ab205715) was measured. The IC50 value was determined as the concentration of the compound required to inhibit STAT phosphorylation by 50% relative to the measured DMSO control.

JAK2 [3] = target: T1, JAK2; experiment: Cellular JAK2 activity assay: EPO-stimulated STAT5 phosphorylation in TF-1 cells; format: cell-based; parameters: endogenous in cells; host or cells: TF-1 cells (ATCC); details: EPO (10 U/mL), pSTAT5, read-out: IC50 Cell JAK2
Description: as §1, §2

- F (Mouse pharmacokinetics): 106%
- Cmax (Mouse pharmacokinetics; mouse, po, plasma): 1060 ng/mL
- half-life (Mouse pharmacokinetics; mouse, po, plasma): 3.79 h
- AUC(0-t) (Mouse pharmacokinetics; mouse, po, plasma, read-out: AUC0-24 hr): 10200 ng·h/mL
- pIC50 (JAK2 [1]): < 4.70
- pIC50 (JAK2 [2]): > 7.00
- pIC50 (JAK1): > 7.00
- pIC50 (JAK2 [3]): > 5.00
SMILES: CC[C@H](C(=O)Nc1nccc2c(-c3nc(Nc4cn(C)nc4OC)ncc3C)c[nH]c12)N1CCN(C)CC1 [Example 4, (R)—N-(3-(2-((3-Methoxy-1-methyl-1H-pyrazol-4-yl)amino)-5-methylpyrimidin-4-yl)-1H-pyrrolo[2,3-c]pyridin-7-yl)-2-(4-methylpiperazin-1-yl)butanamide]
